Results from a melting point compilation (Tetko et al.; mined from patent text by program, amines drawn as free bases though some values may be those of a salt).

Row | melting point [°C] | Structure (SMILES)
1 | 74.5 to 79 | COc1cc(/C=C/C(=O)CC(=O)C2CC2)ccc1O
2 | 49 to 49.5 | CSc1nnsc1-c1cccs1
3 | 77 to 78 | COC(=O)COc1cccc2c1CCC(CC(=O)CBr)C2 (centres undefined)
4 | 195 | O=C1c2ccccc2C(=O)N1CCON=C1c2ccccc2-n2cccc21
5 | 89 to 91 | CC1(C)Oc2ccc([N+](=O)[O-])cc2O1
6 | 120 to 121 | CC(=NO)C1(c2ccc(Cl)c(Cl)c2)CCC1
7 | 151 | COc1cc(-c2nc3ccc(OCCN(C)C)cc3n2Cc2ccccc2C(F)(F)F)cc(OC)c1OC
8 | 147 to 148 | CCC(C)(C)c1ccc(OCCCCNC(=O)c2cc(Sc3nnnn3-c3ccccc3)c3ccccc3c2O)c(C(C)(C)CC)c1
9 | 195 to 196 | COC(=O)Nc1ccc(C(=O)O)cc1
10 | 186 to 187 | CSc1ccc(NC(C#N)c2ccc(C)cc2)cc1 (centres undefined)
11 | 145 to 147 | CC(=O)OC1CCCCC1n1cnc2cc(Cl)c(Cl)cc21 (centres undefined)
12 | 77 | Cc1ccc(-n2cnnc2C(F)(F)F)c(C)c1
13 | 148 to 150 | O=c1cc(-c2ccccc2)oc(N2CCOCC2)c1
14 | > 250 | CCOC(=O)Cn1c2c([nH]c(=O)c1=O)CCC1=C2C=C(n2ccc(C=O)c2)CC1
15 | 68 to 70 | CCOC(=O)c1c(N)cc([N+](=O)[O-])cc1CC
16 | 211 | COc1ccc(-c2cncc(OC3SCC(O)C(O)C3O)c2)cc1OC (centres undefined)
17 | 119 to 120 | CCOC(=O)C1Cc2cc(C(=O)c3ccccc3F)c(O)c(Cl)c2O1 (centres undefined)
18 | 71 to 73 | CC1N(CCCCCl)C(=O)C(C)(C)S1(=O)=O (centres undefined)
19 | 61 to 66 | O=C1CCSc2cc(F)ccc21
20 | 98 to 100 | O=C(OCc1ccccc1)c1ccc(C#Cc2ccccc2)cc1OCc1ccccc1
21 | 55.5 to 57.5 | CC(=S)OCc1ccc([N+](=O)[O-])cc1
22 | 111 to 115 | COc1cccc(-c2nn(Cc3oc4ccccc4c(=O)c3-c3ccccc3)c3ncnc(N)c23)c1
23 | 206 to 208 | CCOC(=O)c1cc(=O)c(Oc2ccc(O)cc2)co1
24 | 119 to 122 | CC(=O)SCCC(=O)N1c2cc(C)ccc2CCC1C(=O)O (centres undefined)
25 | 164 | CCCCNC(=O)Oc1cccc(NC(=O)C=C(C)OCC)c1

Row | melting point [°C] | Structure (SMILES)
26 | 112 | Nc1cc(C(=O)c2ccccc2)ccc1N1CCCC1
27 | 126 | O=C(NOCCBr)Nc1ccc(Cl)c(Cl)c1
28 | 69 to 72 | CCOC(=O)CCCCCOc1cc2c(c(Cl)c1Cl)C(=O)C(C)(C1CCCC1)C2 (centres undefined)
29 | 239 to 241 | Fc1cc(CC2(Cc3ccnc(F)c3)c3cccnc3-c3ncccc32)ccn1
30 | 174 to 177 | CC1(C)OC(=O)C(Oc2ncnc3ccccc23)=C1c1ccc(S(C)(=O)=O)cc1
31 | 160 | COc1ccc(-c2cc(=S)n(Cc3ccncc3)nc2-c2ccc(OC)cc2)cc1
32 | 121 to 123 | CCC(=O)c1cc(Cl)c(Cl)c2c1OCC(CO)O2 (centres undefined)
33 | 194 to 196 | NC(=O)/C=C/c1cnoc1-c1ccccc1
34 | 42 to 43 | C=C(C)C(=O)OCCc1ccc(N(C)C)cc1
35 | 75 to 77 | CCOC(=O)c1ccc(NCCc2ccc(Cl)cc2)cc1
36 | 68 to 69 | CCOC(=O)CCCC(=O)c1ccc(O)c(CCC(=O)OCC)c1
37 | 263 to 265 | Oc1cccc2c1CCC(n1cc[nH]c1=S)C2 (centres undefined)
38 | 75 | O=C(O)c1ccc(S(=O)(=O)Oc2ccc(-c3ccc(-c4c(Cc5ccccc5)oc5ccccc45)cc3)cc2[N+](=O)[O-])cc1O
39 | 215 to 218 | O=C(O)c1cc(-c2ccc3c(c2)CCO3)nn(Cc2ccc(F)cc2)c1=O
40 | 98 to 99 | CC(C)(O)[C@H]1C[C@@H](C(=O)O)C1(C)C
41 | 158 to 161 | O=C(CCCCC1CCSS1)Nc1nc(=S)ss1 (centres undefined)
42 | 75 to 78 | CCCC1(C(O)CCCN2CCC(N3Cc4ccccc4C3=O)CC2)c2ccccc2-c2ccccc21 (centres undefined)
43 | 88 to 90 | Cc1cnn(C(C)C(=O)N(C)C)c1-c1ccccc1 (centres undefined)
44 | 187 to 188 | CCn1ncc2c3onc(-c4cccc(O)c4)c3cnc21
45 | 63 to 65 | CC(C)(C=NO)C1CCN(CC#Cc2cc(C(F)(F)F)cc(C(F)(F)F)c2)CC1
46 | 180 to 182 | O=C1N(Cc2ccccn2)c2ccccc2C12COc1ccc3nonc3c12 (centres undefined)
47 | 143 to 146 | COc1cc(CSc2ccc(N)nn2)cc(OC)c1OC
48 | 191 to 193 | CCc1nc2cc(Cl)c(Cl)cc2n1C1CC(CO)C(O)C1O (centres undefined)
49 | 233 to 235 | Cc1nc(-c2ccc(SC(C)C)c([N+](=O)[O-])c2)sc1C(=O)O
50 | 139 to 142 | COC(=O)C1(C(=O)O)CCc2cc(C3CCCCC3)c(Cl)cc21 (centres undefined)

Row | melting point [°C] | Structure (SMILES)
51 | 105 | O=S(=O)(c1ccccc1)c1ncc(F)cn1
52 | 191 to 192 | Cc1c(NC(=O)c2ccccc2NCc2ccc(=O)[nH]c2)cccc1C(F)(F)F
53 | 205 | CCC1=C(C)CN(C(=O)NC2COc3cc(OC)c(S(=O)(=O)NC(=S)NC)cc3C2)C1=O (centres undefined)
54 | 152 to 154 | O=S(=O)(c1ccccc1)N1CCC(C(O)(c2ccc(F)c(F)c2)c2ccc(F)c(F)c2)CC1
55 | 166 | COc1ccc(S(=O)(=O)N2Cc3cc4c(cc3CC2C(=O)NO)OCO4)cc1 (centres undefined)
56 | 225 to 226 | CC(C)Oc1c(C(=O)Nc2nnn[nH]2)sc2c1CS(=O)CC2 (centres undefined)
57 | 86 to 87 | CCOC(=O)C(OC)c1nn(-c2ccc(Cl)cc2)c2c1CCCC2 (centres undefined)
58 | 111 to 112 | COCOc1cc(OC)cc(C)c1C(=O)O
59 | 75 | N#Cc1cc([N+](=O)[O-])ccc1N1CCCCC1
60 | 235 to 238 | CCn1nc(-c2ccccc2)c(C(C)=O)c(Nc2cccc3nnc(C)cc23)c1=O
61 | 80 to 81 | CN(C)C(=O)Cc1cccc(NC(=O)N(C)C)c1
62 | > 268 | Oc1ccc(-c2ncc3ncc(Nc4cccnc4)cc3n2)cc1
63 | 176 | CC(C)(C)CC1NC(C(=O)NC2CCC(O)CC2)C(c2cccc(Cl)c2F)C12C(=O)Nc1cc(Cl)ccc12 (centres undefined)
64 | 88 to 91 | CNC(=NS(C)(=O)=O)SC
65 | 68 to 70 | O=Cc1ccc(OCc2ccccc2)cn1
66 | 71 | CCOC(=O)c1cc(C(=O)C=CN(C)C)c(=O)[nH]c1C(=O)OCC
67 | > 320 | Cc1noc(C2C(=O)Nc3cc(Cl)ccc3C2=O)n1 (centres undefined)
68 | 218 to 220 | CCCC1=C(C#N)C(c2cccc(C#N)c2Br)c2c[nH]nc2N1C (centres undefined)
69 | 106 to 108 | COC(=O)CCC(C(=O)c1cccc(I)c1)c1ccccc1C (racemic)
70 | 128 to 130 | COC(=O)NCC1Cc2cc(Cl)c3ccccc3c2O1 (centres undefined)
71 | 110 to 111 | OCC1CCn2c(cc3ccccc32)C1 (centres undefined)
72 | 134 to 138 | Cc1ccccc1-c1nc2ccc(O)cc2o1
73 | 117 to 120 | CN(C)C=C(C=O)c1ccc(Cl)cc1
74 | 91 to 92 | CCOC(=O)c1c(C)cc(-c2ccc(OC)c(OC)c2)cc1C
75 | 250 to 252 | CN1CC(=O)Nc2ccc([N+](=O)[O-])cc2C1=O

Row | melting point [°C] | Structure (SMILES)
76 | 195 | Clc1ccc2snc(-c3ccc(C4=NCCN4)cc3)c2c1
77 | > 245 | CCCn1c(=S)[nH]c(=S)c2[nH]c(C3CC3)nc21
78 | 125 to 135 | C[C@@H](S)[C@](O)(Cn1ccnc1)c1ccc(F)cc1F
79 | 265 | CCc1ccc2c(c1)C=Cc1sc(C)nc1C2c1cn(C)c(=O)[nH]c1=S (centres undefined)
80 | 190 to 192 | Cc1cc2c(cc1C1=NNC(=O)CC1C)N(C)C(=O)C(C)O2 (centres undefined)
81 | 114 to 116 | CC(C)=Cc1ccc(-c2ccc(C(CC3CCOCC3)c3ccc(S(=O)(=O)C4CC4)cc3)[nH]2)nc1 (centres undefined)
82 | 79.5 to 81 | CCCCCCCCCCCCSC(C)Cn1ccnc1 (centres undefined)
83 | 147 to 148 | CC(c1ccccc1)N1Cc2cncn2C(c2ccc(Br)cc2)C1=O (single isomer, unassigned; (+))
84 | 163 | CCOC(=O)C(=O)Nc1cc(OC)c(OC)cc1[N+](=O)[O-]
85 | 202 to 203 | CC(=O)N(C)c1c(C(=O)c2cccc(Cl)c2)[nH]c2cc(Cl)ccc12
86 | 115 to 116 | O=C(c1ccccc1)c1ccc(O)c2ncccc12
87 | 75 to 76 | CC1(C)CC(=O)C1(Cl)CC(Cl)(Cl)Cl (centres undefined)
88 | 244 | COc1cc(OCc2ccccc2)ccc1-c1nc2ncccc2[nH]1
89 | 192 to 196 | CCCCc1oc2ccccc2c1C(=O)NCc1ccc2c(-c3ccccc3)c(OCc3nnn[nH]3)ccc2c1
90 | 222 to 223 | Cc1cc2c(-c3cccc(Br)c3)c(CC(=O)Nc3ccc(F)cc3C(F)(F)F)c(=O)oc2cc1Cl
91 | 151 to 153 | COC(=O)c1ccc2c(c1)c(=O)[nH]c(=O)n2CCCCN1CCC(OC(c2ccccc2)c2ccccc2)CC1
92 | 105 to 107 | NNC(=O)NCCSSc1ccccn1
93 | 180 | O=C1NC(=Cc2cccc(Cl)c2Cl)C(=O)C1=NO
94 | 135 to 138 | CC(C)(C)c1ccc(N2C(=O)CCC2=O)c([N+](=O)[O-])c1
95 | 98 to 99 | CCOC(=O)C1CCN(c2nc(COc3ccc(CCl)cc3OC)c(C)s2)CC1
96 | 170 to 172 | CCOC(=O)c1c(C(F)(F)F)n(C)cc(-c2cc(OC(C)C)c(Cl)cc2F)c1=O
97 | 114 | O=C1[C@H](CC[C@H](O)c2ccc(F)cc2)[C@@H](c2ccc(Br)cc2OCc2ccccc2)N1c1ccccc1
98 | 99 to 100 | Cn1c(=O)ccc2cc(CBr)ccc21
99 | 98 to 100 | Cc1ncnc(C)c1N
100 | 201 to 203 | c1ccc(COCCNc2ccc(Nc3ncnc4cc(-c5ccccc5)sc34)cc2)cc1

Row | Structure (SMILES) | melting point [°C]
101 | CN1C(=O)[C@H](NC(=O)/C=C/c2cccc(Br)c2)N=C(c2ccccc2)c2ccccc21 | 221
102 | Fc1ccc(C2=NOC(c3cc(Cl)cc(Cl)c3)(C(F)(F)F)C2)cc1Br (centres undefined) | 132
103 | CCC1CCC2(O)C3CC=C4CC(O)CCC4(C)C3CC(O)C12C (centres undefined) | 228 to 235
104 | COc1cccc2[nH]cc(C3CN4CCC3CC4)c12 (centres undefined) | 193 to 195
